The test system of data set [1] is P-gp (MDR1). The experiment in a line: MDR1-MDCK Efflux Ratio Assay. Format: in vitro ADME. The note with it: dog, MDCK-MDR1, pH 7.4, MDR1-MDCK cells, 2 hr, pH 7.4; read-out: MDR1-MDCK Efflux Ratio (B-A/A-B). The essentials:
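Bidirectional (apical↔basolateral) transport across confluent MDR1-MDCK monolayers in HBSS/10 mM HEPES pH 7.4, receiver buffer with 1% BSA; 2 hr at 37° C, 5% CO2. Donor sampled at 0 and 120 min, receiver at 120 min, quantified by LC-MS/MS in triplicate. Papp, efflux ratio and percent recovery calculated.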

Data set [2] addresses OGA (S400 O-GLCNAC), HEK-293T cells transfected with Tau-V5 (Homo sapiens (Human), UniProt O60502). The experiment in a line: Cellular OGA-Tau MSD Assay. The class given is cell-based. The note with it: HEK-293T cells, Tau-S400-GlcNAc MSD readout. The gist of the method:
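HEK-293T cells transfected with OGA and Tau-V5 plasmids were treated overnight at 37° C with a 10-point, 3-fold titration from 1 uM. Lysates went onto V5-antibody MSD plates to capture Tau, probed with a Tau O-GlcNAc antibody and read by electrochemiluminescence; IC50 from a 4-parameter fit.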

Data set [3] addresses Recombinant full length human OGA enzyme (Homo sapiens (Human), UniProt O60502). As to the kind of experiment: OGA Enzyme Inhibition Biochemical Assay. Particulars: 1 nM OGA, 100 μM 4-MUGlcNAc, pH 6.4. The essentials: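 Full-length recombinant human OGA with fluorogenic 4-MUGlcNAc in McIlvaine buffer pH 6.4, 0.01% BSA; 90 min at room temperature, glycine pH 10 quench, fluorescence Ex 355/Em 460 nm. 10-point, 4-fold dilution from 20 μM; 4-parameter variable-slope fit.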

A short description of data set [4]: Rat Liver Microsome Stability Assay. Format: in vitro ADME. The note with it: rat liver microsomes, 1 uM compound.

OGA (S400 O-GLCNAC), HEK-293T cells transfected with Tau-V5, sequence (O60502 whole entry): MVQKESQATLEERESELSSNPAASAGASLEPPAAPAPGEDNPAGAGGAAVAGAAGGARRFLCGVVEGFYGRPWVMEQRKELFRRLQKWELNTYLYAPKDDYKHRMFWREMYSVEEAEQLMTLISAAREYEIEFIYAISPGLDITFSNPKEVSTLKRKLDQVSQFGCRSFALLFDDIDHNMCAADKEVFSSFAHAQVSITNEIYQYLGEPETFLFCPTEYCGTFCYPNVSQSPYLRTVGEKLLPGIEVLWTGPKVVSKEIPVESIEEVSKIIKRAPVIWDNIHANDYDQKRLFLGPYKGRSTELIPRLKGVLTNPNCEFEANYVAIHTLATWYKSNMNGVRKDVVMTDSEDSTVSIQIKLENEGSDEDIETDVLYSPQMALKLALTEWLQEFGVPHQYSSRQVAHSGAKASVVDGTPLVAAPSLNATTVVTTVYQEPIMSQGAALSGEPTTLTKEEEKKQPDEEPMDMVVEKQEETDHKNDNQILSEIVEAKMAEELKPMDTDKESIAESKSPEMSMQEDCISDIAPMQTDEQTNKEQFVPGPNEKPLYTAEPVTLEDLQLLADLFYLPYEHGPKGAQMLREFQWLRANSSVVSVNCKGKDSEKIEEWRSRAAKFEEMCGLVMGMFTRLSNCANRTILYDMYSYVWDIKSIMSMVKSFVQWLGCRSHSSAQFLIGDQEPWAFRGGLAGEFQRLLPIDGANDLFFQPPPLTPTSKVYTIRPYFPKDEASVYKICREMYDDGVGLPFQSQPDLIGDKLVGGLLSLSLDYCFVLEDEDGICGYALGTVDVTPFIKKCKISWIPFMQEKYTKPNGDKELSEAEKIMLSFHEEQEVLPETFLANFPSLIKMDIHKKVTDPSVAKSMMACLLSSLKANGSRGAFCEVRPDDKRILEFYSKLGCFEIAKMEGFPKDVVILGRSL
Recombinant full length human OGA enzyme, sequence (O60502 whole entry): as above

`COc1nccc(O[C@@H]2C[C@H](C)N(Cc3sc(NC(C)=O)nc3F)C2)n1` [Example 1-92, N-(4-fluoro-5-(((2S,4R)-4-((2-methoxypyrimidin-4-yl)oxy)-2-methylpyrrolidin-1-yl)methyl)thiazol-2-yl)acetamide]: the efflux ratio at 2 h in data set [1] turned out to be 10. In addition, the figures for the concentration for half-maximal inhibition (IC50) in data set [2] and in data set [3] were 1 nM and less than 1 nM, respectively. In addition, the “RLM % Qh (%)” value in data set [4] came out at 54%.
The corresponding values for `CC(=O)Nc1nc(F)c(CN2C[C@H](Oc3ncccn3)C[C@@H]2C)s1` [Example 1-93, N-(4-fluoro-5-(((2S,4R)-2-methyl-4-(pyrimidin-2-yloxy)pyrrolidin-1-yl)methyl)thiazol-2-yl)acetamide] are 14.3, 2 nM, less than 1 nM and 42%.
With `CC(=O)Nc1nc(F)c(CN2C[C@H](Oc3ncccc3F)C[C@@H]2C)s1` [Example 1-94, N-(4-fluoro-5-(((2S,4R)-4-((3-fluoropyridin-2-yl)oxy)-2-methylpyrrolidin-1-yl)methyl)thiazol-2-yl)acetamide], the efflux ratio at 2 h in data set [1] is 1.8. Moreover, the half-inhibitory concentration (IC50) was 2 nM in data set [2] and less than 1 nM in data set [3]. The “RLM % Qh (%)” value in data set [4] is on record as 91%.
The like results for `CC(=O)Nc1nc(F)c(CN2C[C@H](Oc3ncc(Cl)cn3)C[C@@H]2C)s1` [Example 1-95, N-(5-(((2S,4R)-4-((5-chloropyrimidin-2-yl)oxy)-2-methylpyrrolidin-1-yl)methyl)-4-fluorothiazol-2-yl)acetamide] were, in that order, 3.6, 1 nM, less than 1 nM and 72%.
The corresponding values for `CC(=O)Nc1nc(F)c(CN2C[C@H](Oc3cc(F)ccn3)C[C@@H]2C)s1` [Example 1-96, N-(4-fluoro-5-(((2S,4R)-4-((4-fluoropyridin-2-yl)oxy)-2-methylpyrrolidin-1-yl)methyl)thiazol-2-yl)acetamide] are 1.2, 1 nM, less than 1 nM and 86%.
Consider `CC(=O)Nc1nc(F)c(CN2C[C@H](Oc3ccnc(F)c3)C[C@@H]2C)s1` [Example 1-97, N-(4-fluoro-5-(((2S,4R)-4-((2-fluoropyridin-4-yl)oxy)-2-methylpyrrolidin-1-yl)methyl)thiazol-2-yl)acetamide], for which, in data set [1], the efflux ratio at 2 h amounted to 3.7. The IC50 in data set [2] was 3 nM; in data set [3], less than 1 nM. The “RLM % Qh (%)” value in data set [4] was 52%.
The corresponding values for `COc1ccc(O[C@@H]2C[C@H](C)N(Cc3sc(NC(C)=O)nc3F)C2)nc1` [Example 1-98, N-(4-fluoro-5-(((2S,4R)-4-((5-methoxypyridin-2-yl)oxy)-2-methylpyrrolidin-1-yl)methyl)thiazol-2-yl)acetamide] are 2.1, 1 nM, less than 1 nM and 93%.
Consider `COc1cccc(O[C@@H]2C[C@H](C)N(Cc3sc(NC(C)=O)nc3F)C2)n1` [Example 1-99, N-(4-fluoro-5-(((2S,4R)-4-((6-methoxypyridin-2-yl)oxy)-2-methylpyrrolidin-1-yl)methyl)thiazol-2-yl)acetamide], for which, in data set [1], the efflux ratio at 2 h is 2.2. For the same molecule, the IC50 in data set [2] is 1 nM; in data set [3] it was less than 1 nM. For the same molecule, in data set [4], the “RLM % Qh (%)” value stood at 95%.
Turning to `CC(=O)Nc1nc(F)c(CN2C[C@H](Oc3cc(Cl)ccn3)C[C@@H]2C)s1` [Example 1-101, N-(5-(((2S,4R)-4-((4-chloropyridin-2-yl)oxy)-2-methylpyrrolidin-1-yl)methyl)-4-fluorothiazol-2-yl)acetamide], the efflux ratio at 2 h in data set [1] is 1.5. Also, the results for the 50% inhibitory concentration (IC50) in data set [2] and in data set [3] were 3 nM and less than 1 nM, respectively. Besides, in data set [4], the “RLM % Qh (%)” value amounted to 88%.
On to `CC(=O)Nc1nc(F)c(CN2C[C@H](Oc3cc(F)c(F)cn3)C[C@@H]2C)s1` [Example 1-102, N-(5-(((2S,4R)-4-((4,5-difluoropyridin-2-yl)oxy)-2-methylpyrrolidin-1-yl)methyl)-4-fluorothiazol-2-yl)acetamide], for which the efflux ratio at 2 h in data set [1] is 1.2. Moreover, the results for the IC50 in data set [2] and in data set [3] were 2 nM and less than 1 nM, respectively. Further, the “RLM % Qh (%)” value in data set [4] is reported as 82%.
The corresponding values for `CC(=O)Nc1nc(F)c(CN2C[C@H](Oc3cc(N4CCOCC4)ncn3)C[C@@H]2C)s1` [Example 1-103, N-(4-fluoro-5-(((2S,4R)-2-methyl-4-((6-morpholinopyrimidin-4-yl)oxy)pyrrolidin-1-yl)methyl)thiazol-2-yl)acetamide] are 15.9, 3 nM, less than 1 nM and 45%.
The like results for `CC(=O)Nc1ncc(CN2C[C@H](Oc3ccnc(C)n3)C[C@@H]2C)s1` [Example 1-104, N-(5-(((2S,4R)-2-methyl-4-((2-methylpyrimidin-4-yl)oxy)pyrrolidin-1-yl)methyl)thiazol-2-yl)acetamide] were, in that order, 16, 2 nM, less than 1 nM and 30%.
The corresponding values for `COc1cnc(O[C@@H]2C[C@H](C)N(Cc3sc(NC(C)=O)nc3F)C2)cn1` [Example 1-105, N-(4-fluoro-5-(((2S,4R)-4-((5-methoxypyrazin-2-yl)oxy)-2-methylpyrrolidin-1-yl)methyl)thiazol-2-yl)acetamide] are 2.4, 2 nM, less than 1 nM and 74%.
For `CC(=O)Nc1nc(F)c(CN2C[C@H](Oc3cnc(C)cn3)C[C@@H]2C)s1` [Example 1-108, N-(4-fluoro-5-(((2S,4R)-2-methyl-4-((5-methylpyrazin-2-yl)oxy)pyrrolidin-1-yl)methyl)thiazol-2-yl)acetamide], in data set [1], the efflux ratio at 2 h came to 3.4. The IC50 was 2 nM in data set [2] and less than 1 nM in data set [3]. Besides, in data set [4], the “RLM % Qh (%)” value was found to be 79%.
The corresponding values for `CC(=O)Nc1nc(F)c(CN2C[C@H](Oc3cc(O)ncn3)C[C@@H]2C)s1` [Example 1-109, N-(4-fluoro-5-(((2S,4R)-4-((6-hydroxypyrimidin-4-yl)oxy)-2-methylpyrrolidin-1-yl)methyl)thiazol-2-yl)acetamide] are 12.7, 8 nM, less than 1 nM and 16%.
The like results for `CC(=O)Nc1nc(F)c(CN2C[C@H](Oc3ccnc(C)c3)C[C@@H]2C)s1` [Example 1-110, N-(4-fluoro-5-(((2S,4R)-2-methyl-4-((2-methylpyridin-4-yl)oxy)pyrrolidin-1-yl)methyl)thiazol-2-yl)acetamide] were, in that order, 34.4, 1 nM, less than 1 nM and 39%.
The corresponding values for `CC(=O)Nc1nc(F)c(CN2C[C@H](Oc3ncc(F)cn3)C[C@@H]2C)s1` [Example 1-112, N-(4-fluoro-5-(((2S,4R)-4-((5-fluoropyrimidin-2-yl)oxy)-2-methylpyrrolidin-1-yl)methyl)thiazol-2-yl)acetamide] are 5.3, 1 nM, less than 1 nM and 45%.
Turning to `CC(=O)Nc1nc(F)c(CN2C[C@H](Oc3cnc(C(F)F)cn3)C[C@@H]2C)s1` [Example 1-113, N-(5-(((2S,4R)-4-((5-(difluoromethyl)pyrazin-2-yl)oxy)-2-methylpyrrolidin-1-yl)methyl)-4-fluorothiazol-2-yl)acetamide], the efflux ratio at 2 h in data set [1] came to 2.1. The 50% inhibitory concentration (IC50) was 5 nM in data set [2] and 2.1 nM in data set [3]. In addition, in data set [4], the “RLM % Qh (%)” value is recorded as 61%.
With `COc1ccc(O[C@@H]2C[C@H](C)N(Cc3sc(NC(C)=O)nc3F)C2)cn1` [Example 1-114, N-(4-fluoro-5-(((2S,4R)-4-((6-methoxypyridin-3-yl)oxy)-2-methylpyrrolidin-1-yl)methyl)thiazol-2-yl)acetamide], the efflux ratio at 2 h in data set [1] turned out to be 1.9. In addition, the figures for the IC50 in data set [2] and in data set [3] were 2 nM and less than 1 nM, respectively. Besides, the “RLM % Qh (%)” value in data set [4] turned out to be 69%.
On to `CC(=O)Nc1ncc(CN2C[C@H](Oc3ccc(F)nc3)C[C@@H]2C)s1` [Example 1-115, N-(5-(((2S,4R)-4-((6-fluoropyridin-3-yl)oxy)-2-methylpyrrolidin-1-yl)methyl)thiazol-2-yl)acetamide], for which, in data set [1], the efflux ratio at 2 h came to 4.7. Further, the values for the IC50 in data set [2] and in data set [3] were 2 nM and less than 1 nM, respectively. Further, the “RLM % Qh (%)” value in data set [4] is 54%.
The corresponding values for `COc1cc(O[C@@H]2C[C@H](C)N(Cc3sc(NC(C)=O)nc3F)C2)ncc1F` [Example 1-118, N-(4-fluoro-5-(((2S,4R)-4-((5-fluoro-4-methoxypyridin-2-yl)oxy)-2-methylpyrrolidin-1-yl)methyl)thiazol-2-yl)acetamide] are 3.5, 1 nM, less than 1 nM and 85%.

Source of the values: patent publication US20240308995A1, “O-GLYCOPROTEIN-2-ACETAMIDO-2-DEOXY-3-D-GLUCOPYRANOSIDASE INHIBITORS” (BIOGEN MA INC., priority 2018, published 2024).
